Measured values from patent US9156860B2, “Boron-containing small molecules” (Anacor Pharmaceuticals, Inc., priority 2011, dated 2015).

Test system: adult American dog tick (Dermacentor variabilis)
Test: Example 5: efficacy against adult American dog tick infestations on dogs
Format: in vivo
Description: The therapeutic (knockdown) and residual efficacy of 7 and 8, each administered orally at a point dose of either 25 mg/kg or 50 mg/kg bodyweight, was evaluated against adult tick (Dermacentor variabilis and Rhipicephalus sanguineus) infestations on dogs. Twenty (20) male and female beagle dogs were allocated to one of five treatment groups, four (4) dogs per group: Untreated control; 7, 25 mg/kg; 7, 50 mg/kg; 8, 25 mg/kg; and 8, 50 mg/kg. On Day −1, all dogs were infested with approximately 50 unfed, adult D. variabilis ticks. On Day 0, dogs were orally administered gelatin capsules containing either 7 or 8 (50% technical active, 47% microcrystalline cellulose and 3% croscarmellose sodium, w/w) so as to achieve the desired point dosages. Ticks were counted and classified on all dogs, but not removed, on Day 1 (approximately 24 hours after treatment). On Day 2, approximately 48 hours after treatment, ticks were counted, classified and removed. Dogs were re-infested with the same number of D. variabilis ticks on Days 5, 12 and 19 with corresponding 48 hour post-infestation tick counts on Days 7, 14 and 21. Dogs were infested with approximately 50 unfed, adult brown dog ticks (Rhipicephalus sanguineus; approximately 50% male and 50% female) on Days 15 and 28, with corresponding 48 hour post-infestation tick counts on Days 17 and 30. GM percent efficacy of treatments against both tick species was calculated using the following formula: […]

SMILES: CC1(C)OB(O)c2ccc(C3=NOC(c4cc(Cl)c(Cl)c(Cl)c4)(C(F)(F)F)C3)cc21 (racemic) [Compound 7, 3,3-Dimethyl-5-(5-(3,4,5-trichlorophenyl)-5-(trifluoromethyl)-4,5-dihydroisoxazol-3-yl)benzo[c][1,2]oxaborol-1(3H)-ol]
- % efficacy (25 mg/kg oral capsule, Day 1): (90.4) %
- Geometric mean group live tick count (25 mg/kg oral capsule, Day 1): 1.0
- Geometric mean group live tick count (25 mg/kg oral capsule, Day 2): 0.0
- Geometric mean group live tick count (25 mg/kg oral capsule, Day 7): 0.7
- % efficacy (25 mg/kg oral capsule, Day 14): (67.6) %
- Geometric mean group live tick count (25 mg/kg oral capsule, Day 14): 5.3
- % efficacy (25 mg/kg oral capsule, Day 21): (71.1) %
- Geometric mean group live tick count (25 mg/kg oral capsule, Day 21): 4.7
- % efficacy (50 mg/kg oral capsule, Day 1): (83.0) %
- Geometric mean group live tick count (50 mg/kg oral capsule, Day 1): 1.8
- Geometric mean group live tick count (50 mg/kg oral capsule, Day 2): 0.0
- Geometric mean group live tick count (50 mg/kg oral capsule, Day 7): 0.4
- % efficacy (50 mg/kg oral capsule, Day 14): (88.5) %
- Geometric mean group live tick count (50 mg/kg oral capsule, Day 14): 1.9
- % efficacy (50 mg/kg oral capsule, Day 21): (80.1) %
- Geometric mean group live tick count (50 mg/kg oral capsule, Day 21): 3.2
